Source: US20250115669A1, “FGFR1/KLB Targeting Agonistic Antigen-Binding Proteins and Conjugates Thereof with GLP-1R Agonistic Peptides” (SANOFI, priority 2020, published 2025)
Read-outs that look alike come from different tables or passages of the source. Peptide text beside a SMILES is read from it.

Key:
Type in all cases: cell-based
[1] = biological target: T1, human glucagon (GCG) receptor (Homo sapiens, UniProt P47871); experiment: HTRF cAMP assay in HEK-293 cells expressing human glucagon receptor
T1 construct: expressed in transfected cells; host or cells: PSC-HEK-293
T1 sequence (P47871 26-477): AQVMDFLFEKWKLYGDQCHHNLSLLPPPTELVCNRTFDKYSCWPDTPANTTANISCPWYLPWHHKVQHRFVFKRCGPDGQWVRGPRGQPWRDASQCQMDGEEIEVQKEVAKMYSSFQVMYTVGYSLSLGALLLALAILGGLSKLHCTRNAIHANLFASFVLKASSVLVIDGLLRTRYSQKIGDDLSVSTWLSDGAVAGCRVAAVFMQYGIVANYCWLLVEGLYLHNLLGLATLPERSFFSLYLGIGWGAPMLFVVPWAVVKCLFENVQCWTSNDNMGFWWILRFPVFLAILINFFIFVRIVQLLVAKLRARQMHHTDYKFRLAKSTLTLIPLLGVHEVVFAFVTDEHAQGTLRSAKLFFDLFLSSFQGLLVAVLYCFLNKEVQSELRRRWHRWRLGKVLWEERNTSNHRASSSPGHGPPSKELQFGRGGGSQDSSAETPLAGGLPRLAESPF

[2] = biological target: T2, human GIP receptor (Homo sapiens, UniProt P48546); experiment: HTRF cAMP assay in HEK-293 cells expressing human GIP receptor
T2 construct: expressed in transfected cells; host or cells: PSC-HEK-293
T2 sequence (P48546 22-466): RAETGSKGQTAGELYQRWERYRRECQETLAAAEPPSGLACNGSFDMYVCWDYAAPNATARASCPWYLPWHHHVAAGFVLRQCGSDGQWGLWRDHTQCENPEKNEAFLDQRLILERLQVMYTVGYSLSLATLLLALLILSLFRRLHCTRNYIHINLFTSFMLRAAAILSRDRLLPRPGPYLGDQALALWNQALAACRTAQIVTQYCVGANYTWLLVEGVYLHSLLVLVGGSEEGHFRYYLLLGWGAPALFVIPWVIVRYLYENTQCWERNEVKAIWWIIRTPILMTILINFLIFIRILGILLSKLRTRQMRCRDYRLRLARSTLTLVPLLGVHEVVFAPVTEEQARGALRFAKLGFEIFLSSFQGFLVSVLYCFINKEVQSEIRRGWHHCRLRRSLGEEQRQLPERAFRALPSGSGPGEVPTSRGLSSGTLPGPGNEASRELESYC

[3] = biological target: T3, human GLP-1 receptor (Homo sapiens, UniProt P43220); experiment: HTRF cAMP assay in HEK-293 cells expressing human GLP-1 receptor
T3 construct: expressed in transfected cells; host or cells: PSC-HEK-293
T3 sequence (P43220 24-463): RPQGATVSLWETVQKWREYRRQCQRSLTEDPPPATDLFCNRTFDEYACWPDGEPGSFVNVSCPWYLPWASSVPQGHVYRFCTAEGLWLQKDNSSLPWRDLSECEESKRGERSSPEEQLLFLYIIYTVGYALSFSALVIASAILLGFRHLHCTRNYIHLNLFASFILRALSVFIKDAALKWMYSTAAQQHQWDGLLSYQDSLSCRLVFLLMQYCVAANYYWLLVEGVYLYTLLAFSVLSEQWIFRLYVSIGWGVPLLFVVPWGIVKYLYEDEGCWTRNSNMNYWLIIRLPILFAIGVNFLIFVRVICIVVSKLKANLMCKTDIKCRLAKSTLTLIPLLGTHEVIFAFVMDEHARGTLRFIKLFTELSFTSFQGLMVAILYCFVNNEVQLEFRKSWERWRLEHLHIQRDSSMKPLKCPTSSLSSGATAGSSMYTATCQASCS
Description: Each vial contained 1.8 ml cells. The vials were slowly frozen to −80° C. in isopropanol, and then transferred in liquid nitrogen for storage.
Cells were resuspended in assay buffer (cell buffer plus 2 mM IBMX) and adjusted to a cell density of 1 million cells/ml.
For measurement of cAMP generation, 5 μl cells (final 5000 cells/well) and 5 μl of test compound were added to a 384-well plate, followed by incubation for 30 min at room temperature.
The cAMP generated was determined using a kit from Cisbio Corp. based on HTRF (Homogenous Time Resolved Fluorescence). The cAMP assay was performed according to manufacturer's instructions (Cisbio).

[4] = HEK-293 cells, read-out: HTRF cAMP EC50 Human GCGR
[5] = HEK-293 cells, read-out: HTRF cAMP EC50 Human GIPR
[6] = HEK-293 cells, read-out: HTRF cAMP EC50 Human GLP-1R

EC50 [1, 4]	EC50 [2, 5]	EC50 [3, 6]	Compound	EC50 [1]	EC50 [2]	EC50 [3]
> 10 nM	> 10 nM	0.125 nM	CC[C@H](C)[C@H](NC(=O)[C@H](Cc1ccccc1)NC(=O)[C@H](CC(C)C)NC(=O)[C@H](CCCNC(=N)N)NC(=O)[C@H](CCC(N)=O)NC(=O)[C@H](C)NC(=O)[C@H](CCC(=O)O)NC(=O)[C@H](CCC(=O)O)NC(=O)[C@H](CCC(=O)O)NC(=O)[C@H](CC(C)C)NC(=O)[C@H](CCC(N)=O)NC(=O)[C@H](CCCCN)NC(=O)[C@H](CO)NC(=O)[C@H](CC(C)C)NC(=O)[C@H](CC(=O)O)NC(=O)[C@H](CO)NC(=O)[C@@H](NC(=O)[C@H](Cc1ccccc1)NC(=O)[C@@H](NC(=O)CNC(=O)[C@H](CCC(=O)O)NC(=O)CNC(=O)[C@H](Cc1c[nH]cn1)NC(=O)CN)[C@@H](C)O)[C@@H](C)O)C(=O)N[C@@H](CCC(=O)O)C(=O)N[C@@H](Cc1c[nH]c2ccccc12)C(=O)N[C@@H](CC(C)C)C(=O)N[C@@H](CCCCN)C(=O)N[C@@H](C)C(=O)NCC(=O)NCC(=O)N1CCC[C@H]1C(=O)N[C@@H](CO)C(=O)N[C@@H](CO)C(=O)NCC(=O)N[C@@H](CCCCN)C(=O)N1CCC[C@H]1C(=O)N1CCC[C@H]1C(=O)N1CCC[C@H]1C(=O)N[C@@H](CCCCN)C(N)=O [Ab P036] (H-GHGEGTFTSDLSKQLEEEAQRLFIEWLKAGGPSSGKPPPK-NH2; N-terminus assumed)			
> 10 nM	> 10 nM	0.0627 nM	CC[C@H](C)[C@H](NC(=O)[C@H](Cc1ccccc1)NC(=O)[C@H](CC(C)C)NC(=O)[C@H](CCCNC(=N)N)NC(=O)[C@@H](NC(=O)[C@H](C)NC(=O)[C@H](CCC(=O)O)NC(=O)[C@H](CCC(=O)O)NC(=O)[C@H](CCC(=O)O)NC(=O)[C@H](CC(C)C)NC(=O)[C@H](CCC(N)=O)NC(=O)[C@H](CCCCN)NC(=O)[C@H](CO)NC(=O)[C@H](CCCCN)NC(=O)[C@H](CC(=O)O)NC(=O)[C@H](CO)NC(=O)[C@@H](NC(=O)[C@H](Cc1ccccc1)NC(=O)[C@@H](NC(=O)CNC(=O)[C@H](CCC(=O)O)NC(=O)CNC(=O)[C@H](Cc1c[nH]cn1)NC(=O)CN)[C@@H](C)O)[C@@H](C)O)C(C)C)C(=O)N[C@@H](C)C(=O)N[C@@H](Cc1c[nH]c2ccccc12)C(=O)N[C@@H](CC(C)C)C(=O)N[C@H](C(=O)N[C@@H](CCCCN)C(N)=O)C(C)C [Ab P040] (H-GHGEGTFTSDKSKQLEEEAVRLFIAWLVK-NH2; N-terminus assumed)			
0.545 nM	1.6 nM	0.0016 nM	CC[C@H](C)[C@H](NC(=O)[C@H](CC(C)C)NC(=O)[C@H](Cc1c[nH]c2ccccc12)NC(=O)[C@H](Cc1ccc(O)cc1)NC(=O)[C@@H](NC(=O)[C@H](Cc1ccccc1)NC(=O)[C@H](CC(C)C)NC(=O)[C@H](CCCNC(=N)N)NC(=O)[C@H](CCC(N)=O)NC(=O)[C@H](CC(C)C)NC(=O)[C@H](CCCNC(=N)N)NC(=O)[C@H](CCCCN)NC(=O)[C@H](CCC(=O)O)NC(=O)[C@H](CC(C)C)NC(=O)[C@H](CCC(N)=O)NC(=O)[C@H](CCCCN)NC(=O)[C@H](CO)NC(=O)[C@H](CC(C)C)NC(=O)[C@H](CC(=O)O)NC(=O)[C@H](CO)NC(=O)[C@@H](NC(=O)[C@H](Cc1ccccc1)NC(=O)[C@@H](NC(=O)CNC(=O)[C@H](CCC(=O)O)NC(=O)CNC(=O)[C@@H](N)Cc1c[nH]cn1)[C@@H](C)O)[C@@H](C)O)[C@@H](C)CC)C(=O)N[C@@H](C)C(=O)NCC(=O)NCC(=O)N[C@@H](Cc1c[nH]cn1)C(=O)N[C@@H](CO)C(=O)N[C@@H](CO)C(=O)NCC(=O)N[C@@H](CCCCN)C(=O)N1CCC[C@H]1C(=O)N1CCC[C@H]1C(=O)N1CCC[C@H]1C(=O)N[C@@H](CCCCN)C(N)=O [Ab P025] (H-HGEGTFTSDLSKQLEKRLQRLFIYWLIAGGHSSGKPPPK-NH2; N-terminus assumed)			
> 10 nM	> 10 nM	0.158 nM	CC[C@H](C)[C@H](NC(=O)[C@H](Cc1ccccc1)NC(=O)[C@H](CC(C)C)NC(=O)[C@H](Cc1c[nH]cn1)NC(=O)[C@H](CCC(N)=O)NC(=O)[C@H](C)NC(=O)[C@H](CCC(=O)O)NC(=O)[C@H](CCC(=O)O)NC(=O)[C@H](CCC(=O)O)NC(=O)[C@H](CC(C)C)NC(=O)[C@H](CCC(N)=O)NC(=O)[C@H](CCCCN)NC(=O)[C@H](CO)NC(=O)[C@H](CC(C)C)NC(=O)[C@H](CC(=O)O)NC(=O)[C@H](CO)NC(=O)[C@@H](NC(=O)[C@H](Cc1ccccc1)NC(=O)[C@@H](NC(=O)CNC(=O)[C@H](CCC(=O)O)NC(=O)CNC(=O)[C@H](Cc1c[nH]cn1)NC(=O)CN)[C@@H](C)O)[C@@H](C)O)C(=O)N[C@@H](CCC(=O)O)C(=O)N[C@@H](Cc1c[nH]c2ccccc12)C(=O)N[C@@H](CC(C)C)C(=O)N[C@@H](CCCCN)C(=O)N[C@@H](C)C(=O)NCC(=O)NCC(=O)N1CCC[C@H]1C(=O)N[C@@H](CO)C(=O)N[C@@H](CO)C(=O)NCC(=O)N[C@@H](CCCCN)C(=O)N1CCC[C@H]1C(=O)N1CCC[C@H]1C(=O)N1CCC[C@H]1C(=O)N[C@@H](CCCCN)C(N)=O [Ab P037] (H-GHGEGTFTSDLSKQLEEEAQHLFIEWLKAGGPSSGKPPPK-NH2; N-terminus assumed)			
			CC[C@H](C)[C@H](NC(=O)[C@H](Cc1ccccc1)NC(=O)[C@H](CC(C)C)NC(=O)[C@H](CCCNC(=N)N)NC(=O)[C@@H](NC(=O)[C@H](C)NC(=O)[C@H](CCC(=O)O)NC(=O)[C@H](CCC(=O)O)NC(=O)[C@H](CCC(=O)O)NC(=O)[C@H](CC(C)C)NC(=O)[C@H](CCC(N)=O)NC(=O)[C@H](CCCCN)NC(=O)[C@H](CO)NC(=O)[C@H](CC(C)C)NC(=O)[C@H](CC(=O)O)NC(=O)[C@H](CO)NC(=O)[C@@H](NC(=O)[C@H](Cc1ccccc1)NC(=O)[C@@H](NC(=O)CNC(=O)[C@H](CCC(=O)O)NC(=O)CNC(=O)[C@H](Cc1c[nH]cn1)NC(=O)CN)[C@@H](C)O)[C@@H](C)O)C(C)C)C(=O)N[C@@H](CCC(=O)O)C(=O)N[C@@H](Cc1c[nH]c2ccccc12)C(=O)N[C@@H](CC(C)C)C(=O)N[C@@H](CCCCN)C(=O)N[C@@H](C)C(=O)NCC(=O)NCC(=O)N1CCC[C@H]1C(=O)N[C@@H](CCCCN)C(=O)N[C@@H](CCCCN)C(=O)N[C@H](C(=O)N[C@@H](CCCNC(=N)N)C(=O)N[C@@H](Cc1ccc(O)cc1)C(=O)N[C@@H](CO)C(N)=O)[C@@H](C)CC [Ab P013] (H-GHGEGTFTSDLSKQLEEEAVRLFIEWLKAGGPKKIRYS-NH2)	> 10 nM	> 10 nM	0.0099 nM
			CC[C@H](C)[C@H](NC(=O)[C@H](Cc1ccccc1)NC(=O)[C@H](CC(C)C)NC(=O)[C@H](CCC(N)=O)NC(=O)[C@@H](NC(=O)[C@H](CCCNC(=N)N)NC(=O)[C@H](CCC(=O)O)NC(=O)[C@H](CCC(=O)O)NC(=O)[C@H](CCC(=O)O)NC(=O)[C@H](CC(C)C)NC(=O)[C@H](CCC(N)=O)NC(=O)[C@H](CCCCN)NC(=O)[C@H](CO)NC(=O)[C@H](CC(C)C)NC(=O)[C@H](CC(=O)O)NC(=O)[C@H](CO)NC(=O)[C@@H](NC(=O)[C@H](Cc1ccccc1)NC(=O)[C@@H](NC(=O)CNC(=O)[C@H](CCC(=O)O)NC(=O)CNC(=O)[C@@H](N)Cc1c[nH]cn1)[C@@H](C)O)[C@@H](C)O)C(C)C)C(=O)N[C@@H](CCC(=O)O)C(=O)N[C@@H](Cc1c[nH]c2ccccc12)C(=O)N[C@@H](CC(C)C)C(=O)N[C@@H](CCCCN)C(=O)N[C@@H](C)C(=O)N[C@H](C(=O)NCC(=O)N1CCC[C@H]1C(=O)N[C@@H](CO)C(=O)N[C@@H](CO)C(=O)NCC(=O)N[C@@H](C)C(=O)N1CCC[C@H]1C(=O)N1CCC[C@H]1C(=O)N1CCC[C@H]1C(=O)N[C@@H](CO)C(N)=O)[C@@H](C)O [Ab P008] (H-HGEGTFTSDLSKQLEEERVQLFIEWLKATGPSSGAPPPS-NH2)	> 10 nM	> 10 nM	0.0232 nM
5.4 nM	> 10 nM	0.0105 nM	CC[C@H](C)[C@H](NC(=O)[C@H](Cc1ccccc1)NC(=O)[C@H](CC(C)C)NC(=O)[C@H](CCCNC(=N)N)NC(=O)[C@@H](NC(=O)[C@H](C)NC(=O)[C@H](CCC(=O)O)NC(=O)[C@H](CCC(=O)O)NC(=O)[C@H](CCC(=O)O)NC(=O)[C@H](CC(C)C)NC(=O)[C@H](CCC(N)=O)NC(=O)[C@H](CCCCN)NC(=O)[C@H](CO)NC(=O)[C@H](CCCCN)NC(=O)[C@H](CC(=O)O)NC(=O)[C@H](CO)NC(=O)[C@@H](NC(=O)[C@H](Cc1ccccc1)NC(=O)[C@@H](NC(=O)CNC(=O)[C@H](CCC(=O)O)NC(=O)CNC(=O)[C@H](Cc1c[nH]cn1)NC(=O)CN)[C@@H](C)O)[C@@H](C)O)C(C)C)C(=O)N[C@@H](CCC(=O)O)C(=O)N[C@@H](Cc1c[nH]c2ccccc12)C(=O)N[C@@H](CC(C)C)C(=O)N[C@@H](CCCCN)C(=O)N[C@@H](C)C(=O)NCC(=O)NCC(=O)N1CCC[C@H]1C(=O)N[C@@H](CCCCN)C(=O)N[C@@H](CCCCN)C(=O)N[C@H](C(=O)N[C@@H](CCCNC(=N)N)C(=O)N[C@@H](Cc1ccc(O)cc1)C(=O)N[C@@H](CO)C(N)=O)[C@@H](C)CC [Ab P014] (H-GHGEGTFTSDKSKQLEEEAVRLFIEWLKAGGPKKIRYS-NH2; N-terminus assumed)			
